Here are results for four compounds from patent US20240140943A1, “COMPETITIVE AND NONCOMPETITIVE INHIBITORS OF THE MUSCARINIC ACETYLCHOLINE RECEPTOR M5” (Vanderbilt University, priority 2021, published 2024).

This experiment has as its target T1, human M5 receptors (hM5) (Homo sapiens, UniProt P08912).
T1 construct: expressed in transfected cells
T1 sequence (P08912 1-532): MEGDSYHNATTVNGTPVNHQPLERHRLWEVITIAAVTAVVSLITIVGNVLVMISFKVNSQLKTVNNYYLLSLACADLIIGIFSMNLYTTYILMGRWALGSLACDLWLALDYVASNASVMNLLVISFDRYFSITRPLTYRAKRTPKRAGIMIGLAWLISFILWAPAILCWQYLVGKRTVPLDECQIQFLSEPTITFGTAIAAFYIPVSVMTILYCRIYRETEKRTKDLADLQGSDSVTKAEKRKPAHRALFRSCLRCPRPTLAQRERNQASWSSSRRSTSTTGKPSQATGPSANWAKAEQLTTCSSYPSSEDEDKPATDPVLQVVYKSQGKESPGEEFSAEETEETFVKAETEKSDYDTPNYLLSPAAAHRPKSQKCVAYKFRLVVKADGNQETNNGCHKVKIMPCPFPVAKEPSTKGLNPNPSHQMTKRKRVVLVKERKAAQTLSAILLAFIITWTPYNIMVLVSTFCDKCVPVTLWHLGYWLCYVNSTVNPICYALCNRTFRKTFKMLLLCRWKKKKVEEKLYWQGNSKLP
Kind of experiment: Cell-based functional calcium mobilization assay of mAChR M5 activity. The following applies: CHO cells stably expressing hM5; for IC50: calcium mobilization, inhibition of EC80 acetylcholine response; for EC80 MIN: minimum response at EC80 acetylcholine addition, normalized to maximum acetylcholine response. The procedure:
All functional cell-based assays were performed essentially as previously described (Mario et al., Mol. Pharm. 2009, 75(3), 577-588; Brady et al., J. Pharm. & Exp. Ther. 2008, 327, 941-953). Initial, single point (10 μM) compound characterization was performed in stable Chinese Hamster Ovary (CHO) cell lines constitutively expressing human M5 receptors. These were plated at 15,000 cells per 20 μL per well in Greiner 384-well black-walled, TC-treated, clear-bottomed plates (Fisher) in Ham's F12 medium supplemented with 10% FBS and 20 mM HEPES. Cells were incubated overnight at 37° C. under 5% CO2. The following day, medium was exchanged with assay buffer (Hank's Balanced Salt Solution supplemented with 20 mM HEPES and 2.5 mM Probenecid, pH 7.4) leaving 20 μL of assay buffer in each well. This was followed by the addition of 20 μL of 2.3 μM of Fluo-4 AM (Invitrogen) in assay buffer (final concentration 1.15 μM). The cells were then incubated 50 minutes at 37° C. under 5% CO2. The assay buffer plus dye was then exchanged with fresh assay buffer leaving a volume of 20 μL in each well. Test compounds were diluted into assay buffer to a 2× (20 μM) concentration in 0.2% dimethylsulfoxide (DMSO) in columns 3-22 with matching DMSO concentration in columns 1, 2, 23, and […]; compounds were added to the assay for a final concentration of 10 μM and a final DMSO concentration of 0.1%. Acetylcholine (Sigma-Aldrich) was prepared to provide 5× concentrations of EC20, EC80, and ECmax in the triple-addition assay, providing a signal window to view agonism, potentiation, and inhibition of the acetylcholine response as well as a means to normalize to the maximum acetylcholine response.
Either an FDSS (Hamamatsu) or Panoptic (WaveFront Biosciences) kinetic imaging plate reader was used for assay execution and measurement of calcium flux. After establishing baseline fluorescence, test compounds (20 μL) were added to the cells using the reader's integrated pipettor and allowed to equilibrate for 140 seconds before addition of the EC20 concentration of acetylcholine (10 μL) along with vehicle in selected DMSO-only wells in the outer two columns. The EC80 concentration of acetylcholine (10 μL) was added 125 seconds after the EC20 addition along with ECmax concentration in the wells receiving vehicle in the second addition. The raw fluorescence data from each well was normalized to the corresponding initial fluorescence reading (static ratio). The maximum fluorescence value following each addition was determined and the minimum value within that same timeframe was subtracted for each well then normalized to the average of the ECmax maximum-minimum response, providing a % AChmax value for each addition for each well. The single point values represent mean values determined within the EC80 addition timeframe obtained from at least three independent determinations performed in triplicate or greater (error bars represent +/−SEM) unless otherwise specified.
Further characterization of test compounds (compound potency and mAChR subtype-selectivity) was performed on the FDSS with calcium mobilization assays performed as previously described (Mario et al., 2009; Brady et al., 2008) and in a format similar to that described above using the same reagents. CHO cells stably expressing hM1, hM2/Gqi5, hM3, hM4/Gqi5, hM5, rM1, rM2/Gqi5, rM3, rM4/Gqi5, or rM5 were plated in the manner described above. A ten-point concentration range of test compound was serial diluted in assay buffer to 2× final concentration and acetylcholine was diluted in assay buffer to 5× of the EC20 and EC80 concentrations, determined empirically and 5× maximal (2 mM final concentration) stock concentrations. FDSS protocols were carried out as described above; the static ratio was calculated and the minimum response subtracted from the maximum response within the timeframe of each addition. This max-min response was then normalized to the maximum acetylcholine response. […]
Background: A change in cytosolic calcium serves as a functional read-out for many receptors and channels.

For orientation: IC50 means the concentration at which inhibition is half-maximal. `Cc1nnc(S(=O)(=O)[C@H]2CC[C@H](c3cn4ncnc4cc3Cl)CC2)n1C` [Compound 3, trans-7-chloro-6-(4-((4,5-dimethyl-4H-1,2,4-triazol-3-yl)sulfonyl)cyclohexyl)-[1,2,4]triazolo[1,5-a]pyridine]: the IC50 was found to be 0.033 µM and the “EC80 MIN” value was 2%.

Turning to `Cc1nnc(S(=O)(=O)[C@H]2CC[C@@H](c3cn4ncnc4cc3C)CC2)o1` [Compound 4, cis-2-methyl-5-((4-(7-methyl-[1,2,4]triazolo[1,5-a]pyridin-6-yl)cyclohexyl)sulfonyl)-1,3,4-oxadiazole], the IC50 was over 10 µM and the “EC80 MIN” value was 55%.

As to `Cc1nnc(S(=O)(=O)[C@H]2CC[C@H](c3cn4ncnc4cc3Cl)CC2)o1` [Compound 2, trans-2-((4-(7-chloro-[1,2,4]triazolo[1,5-a]pyridin-6-yl)cyclohexyl)sulfonyl)-5-methyl-1,3,4-oxadiazole], the IC50 came out at 0.532 µM and the “EC80 MIN” value turned out to be 3%.

Regarding `Cc1nnc(S(=O)(=O)[C@H]2CC[C@H](c3cn4ncnc4cc3Cl)CC2)s1` [Compound 1, trans-2-((4-(7-chloro-[1,2,4]triazolo[1,5-a]pyridin-6-yl)cyclohexyl)sulfonyl)-5-methyl-1,3,4-thiadiazole], the IC50 came to 0.185 µM and the “EC80 MIN” value is given as 3%.
